By pIC50 is commonly meant the negative decadic logarithm of the IC50, by convention in mol/L.

43 compounds from US10688093B2, “Methods, compositions, and uses of novel Fyn kinase inhibitors” (priority 2015, dated 2020) can be followed below.

In this assay the target is full-length recombinant human FYN A (Homo sapiens (Human), UniProt P06241). In words: ADP-Glo Kinase Assay of FYN kinase inhibition. The settings on record: primary screen, initial compounds. It counts as biochemical. An outline of the steps:
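ADP-Glo read-out of peptide phosphorylation after 90 min RT with 12.5 pmol ATP and 100 pg 12-mer substrate. Enzyme was N-GST full-length human FYN A from insect cells, 3 pg, pre-incubated 30 min with compound, 10 points from 10 μM top, 3-fold steps; IC50 from curve.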
(ADP-Glo first removes unused ATP, then detects ADP through luciferase.)

pIC50: −log10 of the molar value.

Sequence of full-length recombinant human FYN A (P06241 whole entry): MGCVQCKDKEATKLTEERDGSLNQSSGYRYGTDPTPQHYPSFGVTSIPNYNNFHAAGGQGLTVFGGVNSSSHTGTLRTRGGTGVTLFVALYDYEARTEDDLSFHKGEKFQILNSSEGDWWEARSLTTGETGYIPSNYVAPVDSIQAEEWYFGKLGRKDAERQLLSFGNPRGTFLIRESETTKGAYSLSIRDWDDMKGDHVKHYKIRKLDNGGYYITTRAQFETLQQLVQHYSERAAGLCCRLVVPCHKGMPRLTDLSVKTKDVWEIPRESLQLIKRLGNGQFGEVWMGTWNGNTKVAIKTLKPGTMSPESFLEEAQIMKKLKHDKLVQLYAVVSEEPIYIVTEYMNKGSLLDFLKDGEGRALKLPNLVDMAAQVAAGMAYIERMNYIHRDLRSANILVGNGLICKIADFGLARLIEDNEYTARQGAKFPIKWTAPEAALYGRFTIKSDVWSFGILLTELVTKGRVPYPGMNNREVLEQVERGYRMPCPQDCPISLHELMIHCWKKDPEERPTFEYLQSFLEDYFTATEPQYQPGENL

For `CS(=O)(=O)Nc1cccc(-c2ccc3ncc(-c4ccc(CO)cc4)n3n2)c1` [Compound 293, N-[3-[3-[4-(hydroxymethyl)phenyl]imidazo [1,2-b]pyridazin-6-yl]phenyl] methane-sulfonamide], the pIC50 is 6.08.

For `CC(=O)c1cccc(-c2cnc3ccc(-c4cccc(O)c4)nn23)c1` [Compound 294, 1-[3-[6-(3-hydroxyphenyl)imidazo[1,2-a]pyridazin-3-yl]phenyl] ethanone], the pIC50 is 6.00. Turning to `OCc1ccc(-c2ccc3ncc(-c4cccc(CO)c4)n3n2)cc1` [Compound 295, [4-[3-[3-(hydroxymethyl)phenyl]imidazo [1,2-b]pyridazin-6-yl]phenyl] methanol], the pIC50 is 5.65. The same measure for `NC(=O)c1ccc(-c2ccc3ncc(-c4cccc(CO)c4)n3n2)cc1` [Compound 296, 4-[3-[3-(hydroxymethyl)phenyl]imidazo [1,2-b]pyridazin-6-yl]benzamide]: 5.72. `CN(C)CCNC(=O)c1cccc(-c2cnc3ccc(-c4ccc(CO)cc4)nn23)c1` [Compound 297, N-(2-dimethylamino-ethyl)-3-[6-[4-(hydroxymethyl)phenyl]imidazo [1,2-b]pyridazin-3-yl]benzamide]: the pIC50 was 5.83. Then `NC(=O)c1cccc(-c2ccc3ncc(-c4cccc(O)c4)n3n2)c1` [Compound 298, 3-[3-(3-hydroxyphenyl)imidazo[1,2-b]pyridazin-6-yl]benzamide], with 6.51. For the compound `COc1cc(-c2ccc3ncc(-c4ccc(CO)cc4)n3n2)ccc1O` [Compound 299, 4-[3-[4-(hydroxymethyl)phenyl]imidazo [1,2-b]pyridazin-6-yl]-2-methoxy-phenol], the pIC50 was 6.65.

Consider `COc1ccc(-c2cc(=O)c3cc(O)ccc3o2)cc1OC` [Compound 300, 2-(3,4-dimethoxy-phenyl)-6-hydroxy-chromen-4-one], for which the pIC50 was 5.05. The same measure for `OCc1cccc(-c2cnc3ccc(-c4cccnc4)nn23)c1` [Compound 301, [3-[6-(3-pyridyl)imidazo [1,2-b]pyridazin-3-yl]phenyl] methanol]: 5.69; for `OCc1cccc(-c2cnc3ccc(Cc4ccc(F)cc4)nn23)c1` [Compound 302, [3-[6-[(4-fluorophenyl)methyl]imidazo [1,2-b]pyridazin-3-yl]phenyl] methanol]: 5.40; for `COc1cccc(-c2ccc3ncc(-c4cccc(CO)c4)n3n2)c1` [Compound 303, [3-[6-(3-methoxyphenyl)imidazo[1,2-b]pyridazin-3-yl]phenyl] methanol]: 5.56. The same measure for `CS(=O)(=O)Nc1cccc(-c2ccc3ncc(-c4ccncc4)n3n2)c1` [Compound 304, N-[3-[3-(4-pyridyl)imidazo [1,2-b]pyridazin-6-yl]phenyl] methane-sulfonamide]: 6.53; for `CN1CCN(c2ccc(Nc3cc4c(cn3)cc(-c3cccnc3)n4Cc3ccccc3)cc2)CC1` [Compound 305, 1-benzyl-N-[4-(4-methyl-piperazin-1-yl)phenyl]-2-(3-pyridyl)pyrrolo [3,2-c]pyridin-6-amine]: 4.86; for `c1ccc(Nc2cc3[nH]c(-c4cn[nH]c4)cc3cn2)nc1` [Compound 306, 2-(1H-pyrazol-4-yl)-N-(2-pyridyl)-1H-pyrrolo[3,2-c]pyridin-6-amine]: 5.12. Consider `CS(=O)(=O)c1ccc(Nc2cc3[nH]c(-c4cn[nH]c4)cc3cn2)cc1` [Compound 307, N-(4-methyl-sulfonylphenyl)-2-(1H-pyrazol-4-yl)-1H-pyrrolo[3,2-c]pyridin-6-amine], for which the negative logarithm of the IC50 (pIC50) is 5.32. Then `c1ccc(Cn2c(-c3cccnc3)cc3cnc(Nc4ccncn4)cc32)cc1` [Compound 308, 1-benzyl-2-(3-pyridyl)-N-pyrimidin-4-yl-pyrrolo[3,2-c]pyridin-6-amine], with 5.16; and `COc1cccc(Nc2cc3[nH]c(-c4cn[nH]c4)cc3cn2)c1` [Compound 309, N-(3-methoxyphenyl)-2-(1H-pyrazol-4-yl)-1H-pyrrolo[3,2-c]pyridin-6-amine], with 4.78. As for `COc1ccc(Nc2cc3[nH]c(-c4cn[nH]c4)cc3cn2)cc1OC` [Compound 310, N-(3,4-dimethoxy-phenyl)-2-(1H-pyrazol-4-yl)-1H-pyrrolo[3,2-2]pyridin-6-amine], the pIC50 was 4.90.

As for `CN1CCN(c2ccc(Nc3cc4c(cn3)cc(-c3ccccc3)n4Cc3ccccc3)cc2)CC1` [Compound 311, 1-benzyl-N-[4-(4-methylpiperazin-1-yl)phenyl]-2-phenyl-pyrrolo[3,2-c]pyridin-6-amine], the pIC50 was 4.82.

Turning to `COc1ccccc1-c1ccc2ncc(-c3ccncc3)n2n1` [Compound 312, 6-(2-methoxyphenyl)-3-(4-pyridyl)imidazo [1,2-b]pyridazine], the pIC50 was 6.23. As for `NC(=O)c1cccc(-c2ccc3ncc(-c4ccncc4)n3n2)c1` [Compound 313, 3-[3-(4-pyridyl)imidazo [1,2-b]pyridazin-6-yl]benzamide], the pIC50 is 5.92.

As to `CC(=O)Nc1cccc(-c2cnc3ccc(-c4ccccc4)nn23)c1` [Compound 314, N-[3-(6-phenylimidazo [1,2-b]pyridazin-3-yl)phenyl] acetamide], the pIC50 is 6.11. As to `CC(=O)Nc1cccc(-c2cnc3ccc(-c4cccc(O)c4)nn23)c1` [Compound 315, N-[3-[6-(3-hydroxyphenyl)imidazo[1,2-b]pyridazin-3-yl]phenyl] acetamide], the pIC50 was 5.97. The same measure for `COc1ccc(-c2cnc3ccc(-c4cccc(F)c4)nn23)cc1OC` [Compound 316, 3-(3,4-dimethoxy-phenyl)-6-(3-fluorophenyl) imidazo[1,2-b]pyridazine]: 5.98; for `CC(=O)Nc1cccc(-c2cnc3ccc(-c4ccc(CO)cc4)nn23)c1` [Compound 317, N-[3-[6-[4-(hydroxymethyl)phenyl]imidazo [1,2-b]pyridazin-3-yl]phenyl] acetamide]: 6.31; for `OCc1cccc(-c2cnc3ccc(-c4ccccc4)nn23)c1` [Compound 318, [3-(6-phenylimidazo [1,2-b]pyridazin-3-yl)phenyl] methanol]: 5.76. Regarding `Clc1cccc(-c2ccc3ncc(-c4ccncc4)n3n2)c1` [Compound 319, 6-(3-chlorophenyl)-3-(4-pyridyl)imidazo [1,2-b]pyridazine], the pIC50 was 6.59.

As to `COc1cc(-c2ccc3ncc(-c4ccc(OC)c(OC)c4)n3n2)ccc1O` [Compound 320, 4-[3-(3,4-dimethoxy-phenyl)imidazo [1,2-b]pyridazin-6-yl]-2-methoxy-phenol], the pIC50 is 6.65. As for `COc1ccccc1-c1ccc2ncc(-c3cccc(NC(C)=O)c3)n2n1` [Compound 321, N-[3-[6-(2-methoxyphenyl)imidazo[1,2-b]pyridazin-3-yl]phenyl] acetamide], the pIC50 is 5.54. As for `CC(=O)Nc1cccc(-c2cnc3ccc(-c4cccc(C(F)(F)F)c4)nn23)c1` [Compound 322, N-[3-[6-[3-(trifluoromethyl)phenyl]imidazo [1,2-b]pyridazin-3-yl]phenyl] acetamide], the pIC50 was 5.80.

For `COc1ccccc1-c1ccc2ncc(-c3cccc(CO)c3)n2n1` [Compound 323, [3-[6-(2-methoxyphenyl)imidazo[1,2-b]pyridazin-3-yl]phenyl] methanol], the pIC50 is 5.97. For `COc1cc(-c2ccc3ncc(-c4cccc(CO)c4)n3n2)ccc1O` [Compound 324, 4-[3-[3-(hydroxymethyl)phenyl]imidazo [1,2-b]pyridazin-6-yl]-2-methoxy-phenol], the negative logarithm of the IC50 (pIC50) is 6.82. Regarding `c1ccc(-c2cnc3ccc(-c4ccncc4)nn23)cc1` [Compound 325, 3-phenyl-6-(4-pyridyl)imidazo [1,2-b]pyridazine], the pIC50 is 5.16.

In the case of `Oc1cccc(-c2ccc3ncc(-c4ccncc4)n3n2)c1` [Compound 326, 3-[3-(4-pyridyl)imidazo [1,2-b]pyridazin-6-yl]phenol], the pIC50 was 6.65. As to `COc1ccc(-c2cnc3ccc(-c4ccccc4)nn23)cc1OC` [Compound 327, 3-(3,4-dimethoxy-phenyl)-6-phenyl-imidazo[1,2-b]pyridazine], the pIC50 was 6.38. The same measure for `COc1ccc(-c2cnc3ccc(-c4ccc(F)cc4)nn23)cc1OC` [Compound 328, 3-(3,4-dimethoxy-phenyl)-6-(4-fluorophenyl) imidazo[1,2-b]pyridazine]: 5.88; for `COc1cc(-c2ccc3ncc(-c4cccc(NC(C)=O)c4)n3n2)cc(OC)c1OC` [Compound 329, N-[3-[6-(3,4,5-trimethoxyphenyl)imidazo[1,2-b]pyridazin-3-yl]phenyl] acetamide]: 5.50. With `COc1cc(-c2ccc3ncc(-c4cccc(NC(C)=O)c4)n3n2)ccc1O` [Compound 330, N-[3-[6-(4-hydroxy-3-methoxy-phenyl)imidazo [1,2-b]pyridazin-3-yl]phenyl] acetamide], the pIC50 is 7.03. Take `c1ccc(-c2cnc3ccc(-c4cccnc4)nn23)cc1` [Compound 331, 3-phenyl-6-(3-pyridyl)imidazo [1,2-b]pyridazine]: the negative logarithm of the IC50 (pIC50) is 5.42.

Regarding `OCc1ccc(-c2ccc3ncc(-c4ccncc4)n3n2)cc1` [Compound 332], the pIC50 was 6.59. In the case of `COc1ccc(-c2cnc3ccc(-c4ccccc4OC)nn23)cc1OC` [Compound 333, 3-(3,4-dimethoxy-phenyl)-6-(2-methoxyphenyl) imidazo[1,2-b]pyridazine], the pIC50 is 5.51.

With `COc1ccc(-c2cnc3ccc(-c4ccoc4)nn23)cc1OC` [Compound 334, 3-(3,4-dimethoxy-phenyl)-6-(3-furyl)imidazo [1,2-b]pyridazine], the pIC50 is 6.01. In the case of `CC(=O)Nc1cccc(-c2cnc3ccc(-c4ccoc4)nn23)c1` [Compound 335, N-[3-[6-(3-furyl)imidazo [1,2-b]pyridazin-3-yl]phenyl] acetamide], the pIC50 is 5.90.
